Molecular target: T1, BaF3 BRAF-KIAA1549 fusion cells (Homo sapiens, UniProt P15056)
T1 construct: The BRAF-KIAA1549 fusion mutant was subcloned into pMXs-IRES-Blasticidin (RTV-016, Cell Biolabs, San Diego, CA); No tag given; Q9HCM3 (UPF0606 protein KIAA1549)
Test: BaF3 BRAF-KIAA1549 fusion cell proliferation assay (CellTiterGlo, 96 hours)
Assay type: cell-based
Method: Retroviral Production: The BRAF-KIAA1549 fusion mutant was subcloned into pMXs-IRES-Blasticidin (RTV-016, Cell Biolabs, San Diego, CA). Retrovirus was produced by transfection of HEK 293T cells with the retroviral BRAF mutant expression vector pMXs-IRES-Blasticidin (RTV-016, Cell Biolabs), pCMV-Gag-Pol vector and pCMV-VSV-G-Envelope vector. Briefly, HEK 293T cells were plated in Poly-D-lysine coated 6-well plate (2.5×10^5 cells per well) and incubated overnight. The next day, retroviral plasmids (1 μg of BRAF-KIAA fusion mutant, 0.32 μg of pCMV-Gag-Pol and 0.165 μg pCMV-VSV-G) were mixed in 300 μL of Optimem (31985, Life Technologies). The mixture was incubated at room temperature for 5 minutes and then added to Optimem containing transfection reagent Lipofectamine (11668, Invitrogen) and incubated for 20 minutes. The mixture was then added dropwise to HEK 293T cells. The next day the medium was replaced with fresh culture medium and retrovirus was harvested at 24 hours.
Generation of BRAF-KIAA1549 fusion stable cell line: BaF3 cells were plated in V-bottom 96 well plate (COSTAR #3894) in 80 μL of RPMI/10% FBS and 0.01 ng/mL mouse IL-3, supplemented with 8 μg/mL polybrene (4×10^4 cells/well). Cells were transduced with 20 μL of BRAF-KIAA1549 fusion viral supernatant by centrifuging for 30 minutes at 1000 rpm. Cells were placed in a 37° C. incubator overnight. Next day 100 μL of RPMI/10% FBS and 0.01 ng/mL mouse IL-3 was added. After 24 hours, 100 μL of cells were transferred to a 24 well plate containing 900 μL of RPM/10% FBS and 15 μg/mL Blasticidin. Contents of the 24 well plate were sampled for cell viability via CellTiterGlo (Promega) over a 2-week period.
Assay for cell proliferation: BaF3 BRAF-KIAA1549 fusion cells were resuspended at 1.5×10^5 c/mL in RPMI containing 10% Heat Inactivated FBS, 1% L-glutamine and dispensed in duplicate (7×10^4 c/well) into 384 well plates. To determine the effect of compound on cell proliferation, BaF3 BRAF-KIAA1549 fusion cells were incubated for 96 hours in the presence of vehicle control (DMSO) or compound at varying concentrations. Inhibition of cell growth was determined by luminescent quantification (Envision by Perkin Elmer) of intracellular ATP content using CellTiterGlo (Promega), according to the protocol provided by the manufacturer. To determine the IC50 values, the vehicle-treated cells were normalized as viable cells and analyzed using the CDD Vault, Collaborative Drug Discovery, Burlingame, CA (the Levenberg-Marquardt algorithm; Levenberg, K., […]; Marquardt, D., 1963).
Tables A1 and A2 assign each compound a code for potency in the BaF3 BRAF-KIAA1549 fusion cell proliferation assay: A, B, C, or D. According to the code, A represents an IC50 value <20 nM; B represents an IC50 value ≥20 nM and <100 nM; C represents an IC50 value ≥100 nM and <500 nM; and D represents an IC50 value ≥500 nM.

T1 sequence (P15056 whole entry, change not shown, the tested form may be a part): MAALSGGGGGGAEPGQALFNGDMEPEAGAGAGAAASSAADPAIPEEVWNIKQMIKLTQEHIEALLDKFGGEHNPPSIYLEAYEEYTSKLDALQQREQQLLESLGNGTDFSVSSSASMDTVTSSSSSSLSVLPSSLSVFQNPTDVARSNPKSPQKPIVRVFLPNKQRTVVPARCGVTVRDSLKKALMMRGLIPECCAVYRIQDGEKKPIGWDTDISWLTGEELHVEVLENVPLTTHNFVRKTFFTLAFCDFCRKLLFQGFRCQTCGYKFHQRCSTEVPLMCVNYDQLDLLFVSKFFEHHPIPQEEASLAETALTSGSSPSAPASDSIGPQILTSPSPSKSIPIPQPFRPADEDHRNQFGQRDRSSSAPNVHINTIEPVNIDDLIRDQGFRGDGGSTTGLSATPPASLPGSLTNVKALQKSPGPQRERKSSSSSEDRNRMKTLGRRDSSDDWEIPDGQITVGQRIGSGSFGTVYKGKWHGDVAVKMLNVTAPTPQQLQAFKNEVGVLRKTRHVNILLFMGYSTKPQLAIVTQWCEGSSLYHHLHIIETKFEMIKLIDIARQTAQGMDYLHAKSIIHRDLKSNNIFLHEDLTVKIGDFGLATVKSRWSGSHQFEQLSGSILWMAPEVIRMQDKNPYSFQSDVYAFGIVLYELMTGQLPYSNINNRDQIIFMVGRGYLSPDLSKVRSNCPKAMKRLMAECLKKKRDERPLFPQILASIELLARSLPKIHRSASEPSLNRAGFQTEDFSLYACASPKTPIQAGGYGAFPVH

Compound | GI50 (Table A2) [nM] | GI50 (Table A1) [nM]
CNc1cc2ncc(-c3cc(NC(=O)c4cccc5c4CCC5=O)cnc3C)cc2cn1 [Compound 212, N-(6-methyl-5-(7-(methylamino)-1,6-naphthyridin-3-yl)pyridin-3-yl)-1-oxo-2,3-dihydro-1H-indene-4-carboxamide] | ≥ 500 | 
CNc1cc2ncc(-c3cc(NC(=O)c4cc(C(C)(C)C#N)ccn4)cc(Cl)c3C)cc2cn1 [Compound 48, N-(3-Chloro-4-methyl-5-(7-(methylamino)-1,6-naphthyridin-3-yl)phenyl)-4-(2-cyanopropan-2-yl)picolinamide] |  | ≥ 500
CNc1cc2ncc(-c3cc(NC(=O)c4cccc(N(C)C)c4)cnc3C)cc2cn1 [Compound 19, 3-(Dimethylamino)-N-(6-methyl-5-(7-(methylamino)-1,6-naphthyridin-3-yl)pyridin-3-yl)benzamide] |  | < 20
CNc1cc2ncc(-c3cc(NC(=O)c4cccc5c4CCC[C@@H]5O)cnc3C)cc2cn1 (single isomer, unassigned) [Compound 207] | ≥ 500 | 
CNc1ncc2cc(-c3cc(NC(=O)c4ccnc(C(C)(C)C#N)c4)cnc3C)cnc2c1C#N [Compound 192, N-[5-[8-cyano-7-(methylamino)-1,6-naphthyridin-3-yl]-6-methyl-3-pyridyl]-2-(1-cyano-1-methyl-ethyl)pyridine-4-carboxamide] | 100 to 500 | 
CNc1cc2ncc(-c3cc(NC(=O)c4cncc(C(F)(F)F)c4)cnc3C)cc2cn1 [Compound 21, N-(6-Methyl-5-(7-(methylamino)-1,6-naphthyridin-3-yl)pyridin-3-yl)-5-(trifluoromethyl)nicotinamide] |  | 20 to 100
CCNc1cc2ncc(-c3cc(NC(=O)c4cc(C(C)(C)C#N)ccn4)cnc3C)cc2cn1 [Compound 175, 4-(2-cyanopropan-2-yl)-N-(5-(7-(ethylamino)-1,6-naphthyridin-3-yl)-6-methylpyridin-3-yl)picolinamide] |  | 20 to 100
CNc1cc2ncc(-c3cc(NC(=O)c4ccnc(C(C)(C)C)c4)cnc3C)cc2cn1 [Compound 58, 2-(tert-Butyl)-N-(6-methyl-5-(7-(methylamino)-1,6-naphthyridin-3-yl)pyridin-3-yl)isonicotinamide] |  | 20 to 100
CNc1cc2ncc(-c3cc(C(=O)Nc4cc(C(C)(C)C#N)ccn4)cnn3)cc2cn1 [Compound 213, N-(4-(2-cyanopropan-2-yl)pyridin-2-yl)-6-(7-(methylamino)-1,6-naphthyridin-3-yl)pyridazine-4-carboxamide] | ≥ 500 | 
CNc1cc2ncc(-c3cc(NC(=O)C[C@@H]4C[C@H](C(F)(F)F)CCO4)ccc3C)cc2cn1 (single isomer, unassigned) [Compound 7, N-(4-Methyl-3-(7-(methylamino)-1,6-naphthyridin-3-yl)phenyl)-2-(4-(trifluoromethyl)tetrahydro-2H-pyran-2-yl)acetamide] |  | < 20
CNc1cc2ncc(-c3cc(NC(=O)c4cc(C(F)F)ccn4)cnc3C)cc2cn1 [Compound 22, 4-(Difluoromethyl)-N-(6-methyl-5-(7-(methylamino)-1,6-naphthyridin-3-yl)pyridin-3-yl)picolinamide] |  | 20 to 100
CNc1cc2ncc(-c3cc(NC(=O)c4cnn(CC(F)(F)F)c4C)cnc3C)cc2cn1 [Compound 240, 5-methyl-N-(6-methyl-5-(7-(methylamino)-1,6-naphthyridin-3-yl)pyridin-3-yl)-1-(2,2,2-trifluoroethyl)-1H-pyrazole-4-carboxamide] | ≥ 500 | 
CNc1cc2ncc(-c3cc(NC(=O)c4cc(C(C)(C)C#N)ccn4)cc(F)c3F)cc2cn1 [Compound 39, 4-(2-Cyanopropan-2-yl)-N-(3,4-difluoro-5-(7-(methylamino)-1,6-naphthyridin-3-yl)phenyl)picolinamide] |  | 20 to 100
CNc1cc2ncc(-c3cc(NC(=O)c4cc(C(C)(C)C(N)=O)ccn4)ccc3C)cc2cn1 [Compound 255] | 20 to 100 | 
CNc1cc2ncc(-c3cc(NC(=O)CN4CCC[C@H](C(F)(F)F)C4)cnc3C)cc2cn1 [Compound 62, (S)—N-(6-Methyl-5-(7-(methylamino)-1,6-naphthyridin-3-yl)pyridin-3-yl)-2-(3-(trifluoromethyl)piperidin-1-yl)acetamide] |  | 20 to 100
CNc1cc2ncc(-c3cc(NC(=O)c4n[nH]c5c4CC(C)CC5)ccc3C)cc2cn1 (stereo not drawn) [Compound 261, 5-methyl-N-(4-methyl-3-(7-(methylamino)-1,6-naphthyridin-3-yl)phenyl)-4,5,6,7-tetrahydro-1H-indazole-3-carboxamide] | < 20 | 
CNc1cc2ncc(-c3cc(NC(=O)c4cc(C(NC)C(F)(F)F)ccn4)ccc3C)cc2cn1 (stereo not drawn) [Compound 203, N-(4-methyl-3-(7-(methylamino)-1,6-naphthyridin-3-yl)phenyl)-4-(2,2,2-trifluoro-1-(methylamino)ethyl)picolinamide] | < 20 | 
CCNc1cc2ncc(-c3cc(NC(=O)c4ccnc(C5(F)CC5)c4)ccc3C)cc2cn1 [Compound 153, N-(3-(7-(ethylamino)-1,6-naphthyridin-3-yl)-4-methylphenyl)-2-(1-fluorocyclopropyl)isonicotinamide] |  | 20 to 100
CNc1cc2ncc(-c3cc(NC(=O)c4cccc(C(C)(C)C#N)c4)ccc3C)cc2cn1 [Compound 193, 3-(2-cyanopropan-2-yl)-N-(4-methyl-3-(7-(methylamino)-1,6-naphthyridin-3-yl)phenyl)benzamide] | < 20 | 
CNc1cc2ncc(-c3cc(NC(=O)c4cc(C(C)(C)C#N)ccn4)ccc3F)cc2cn1 [Compound 40, 4-(2-cyanopropan-2-yl)-N-(4-fluoro-3-(7-(methylamino)-1,6-naphthyridin-3-yl)phenyl)picolinamide] |  | 20 to 100
CNc1cc2ncc(-c3cc(NC(=O)c4c[nH]c5c4CC(C)CC5)ccc3C)cc2cn1 (stereo not drawn) [Compound 266, 5-methyl-N-(4-methyl-3-(7-(methylamino)-1,6-naphthyridin-3-yl)phenyl)-4,5,6,7-tetrahydro-1H-indole-3-carboxamide] | 20 to 100 | 
CNc1cc2ncc(-c3cc(NC(=O)c4cc(C(F)(F)F)ccn4)nnc3C)cc2cn1 [Compound 75, N-(6-methyl-5-(7-(methylamino)-1,6-naphthyridin-3-yl)pyridazin-3-yl)-4-(trifluoromethyl)picolinamide] |  | 20 to 100
CNc1cc2ncc(-c3cc(NC(=O)c4cc(C(O)(O)C(F)(F)F)ccn4)cnc3C)cc2cn1 [Compound 206, N-(6-methyl-5-(7-(methylamino)-1,6-naphthyridin-3-yl)pyridin-3-yl)-4-(2,2,2-trifluoro-1,1-dihydroxyethyl)picolinamide] | 20 to 100 | 
CNc1cc2ncc(-c3cc(NC(=O)c4cc(C(C)(C)C#N)ccn4)nnc3C)cc2cn1 [Compound 77, 4-(2-cyanopropan-2-yl)-N-(6-methyl-5-(7-(methylamino)-1,6-naphthyridin-3-yl)pyridazin-3-yl)picolinamide] |  | 20 to 100
CNc1cc2ncc(-c3cc(NC(=O)c4noc5c4COCC5)cnc3C)cc2cn1 [Compound 246, N-(6-methyl-5-(7-(methylamino)-1,6-naphthyridin-3-yl)pyridin-3-yl)-6,7-dihydro-4H-pyrano[3,4-d]isoxazole-3-carboxamide] | ≥ 500 | 
CNc1cc2ncc(-c3cc(NC(=O)c4cnc5n4CCCC5)ccc3C)cc2cn1 [Compound 216, N-(4-methyl-3-(7-(methylamino)-1,6-naphthyridin-3-yl)phenyl)-5,6,7,8-tetrahydroimidazo[1,2-a]pyridine-3-carboxamide] | 100 to 500 | 
CNc1cc2ncc(-c3cc(NC(=O)c4cc(C(O)CC(F)(F)F)ccn4)cnc3C)cc2cn1 (stereo not drawn) [Compound 242, N-(6-methyl-5-(7-(methylamino)-1,6-naphthyridin-3-yl)pyridin-3-yl)-4-(3,3,3-trifluoro-1-hydroxypropyl)picolinamide] | 20 to 100 | 

— patent publication US20250017914A1, “6-AZA-QUINOLINE DERIVATIVES AND RELATED USES” (Black Diamond Therapeutics, Inc., priority 2021, published 2025)
